Test results taken from US7157569B2, “Mutation associated with epilepsy” (Bionomics Limited, priority 2000, dated 2007).
“Also recorded” adds a separate entry of the source.

Experiments:
[1] = target: T1, wild-type GABRA1:GABRB2:GABRG2 (α1β2γ2) GABAA receptor (Homo sapiens, UniProt P14867+P18507+P47870); assay: Diazepam potentiation of GABA currents, two-electrode voltage clamp in Xenopus laevis oocytes, wild-type channels; type: cell-based; conditions: GABA 1 μM, diazepam 1 μM
T1 construct: expressed in transfected cells; host or cells: Xenopus laevis oocytes (cRNA injection)
T1 sequence (P18507 40-467 isoform P18507-1 limits assumed, one chain of several): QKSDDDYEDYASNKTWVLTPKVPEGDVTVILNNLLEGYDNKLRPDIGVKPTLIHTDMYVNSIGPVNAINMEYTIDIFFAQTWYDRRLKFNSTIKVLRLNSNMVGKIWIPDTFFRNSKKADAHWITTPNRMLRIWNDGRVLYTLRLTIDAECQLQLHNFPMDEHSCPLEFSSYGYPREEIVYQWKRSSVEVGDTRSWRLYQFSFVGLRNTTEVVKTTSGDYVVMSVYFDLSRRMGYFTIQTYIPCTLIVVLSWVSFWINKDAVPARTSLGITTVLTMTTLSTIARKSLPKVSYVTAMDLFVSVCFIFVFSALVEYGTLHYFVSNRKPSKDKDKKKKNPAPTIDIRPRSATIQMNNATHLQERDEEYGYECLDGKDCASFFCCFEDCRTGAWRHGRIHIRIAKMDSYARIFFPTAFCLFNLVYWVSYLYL
Experimental: (§1) To test the effects of the GABRG2 mutations on GABAA receptor function, electrophysiological analysis of Xenopus laevis oocytes were conducted. cDNAs encoding the GABRA1, GABRB2 and GABRG2 subunits of the human GABAA receptor were subcloned into pcDNA3.1(+). The c245G→A and c1168C→T mutations were introduced separately into GABRG2 of the human GABAA receptor using the QuickChange site directed mutagenesis kit (Stratagene, La Jolla, Calif.). […] Successful mutagenesis was identified by DNA sequencing. Wild-type and mutant cDNAs were linearised and gel purified and cRNA was made using the T7 RNA polymerase Message Machine in vitro RNA synthesis kit (Ambion). Samples of cRNA were run on denaturing agarose gels to ensure they were the correct size and were not degraded. Xenopus laevis oocytes (stage V or VI) were microinjected with ˜25 ng of cRNA representing the GABAA subunits. A tenfold molar excess of wild-type and mutant GABRG2 was used to promote assembly of the ternary (GABRA1:GABRB2:GABRG2) rather than binary (GABRA1:GABRB2) complex. Oocytes were then stored in OR2 buffer (82.5 mM NaCl, 2 mM KCl, 1 mM MgCl2, 5 mM HEPES, pH 7.5, supplemented with 2% foetal bovine serum, 100 U/ml penicillin, 100 μg/ml streptomycin, Life Technologies) and incubated at 18° C. for three to five days to allow for adequate receptor expression. […]

[2] = target: T2, mutant GABRA1:GABRB2:GABRG2(R43Q) [α1β2γ2 (R43Q)] GABAA receptor (Homo sapiens, UniProt P14867+P18507+P47870, R82Q/T120M/T181S); assay: Diazepam potentiation of GABA currents, two-electrode voltage clamp in Xenopus laevis oocytes, R43Q mutant channels; type: cell-based; conditions: for small, insignificant decrease in GABA current with diazepam, mean±SEM: GABA 1 μM, diazepam 1 μM, R43Q mutant channels, n=17, a decrease, not a potentiation
T2 construct: expressed in transfected cells; host or cells: Xenopus laevis oocytes (cRNA injection)
T2 sequence (P14867 28-456): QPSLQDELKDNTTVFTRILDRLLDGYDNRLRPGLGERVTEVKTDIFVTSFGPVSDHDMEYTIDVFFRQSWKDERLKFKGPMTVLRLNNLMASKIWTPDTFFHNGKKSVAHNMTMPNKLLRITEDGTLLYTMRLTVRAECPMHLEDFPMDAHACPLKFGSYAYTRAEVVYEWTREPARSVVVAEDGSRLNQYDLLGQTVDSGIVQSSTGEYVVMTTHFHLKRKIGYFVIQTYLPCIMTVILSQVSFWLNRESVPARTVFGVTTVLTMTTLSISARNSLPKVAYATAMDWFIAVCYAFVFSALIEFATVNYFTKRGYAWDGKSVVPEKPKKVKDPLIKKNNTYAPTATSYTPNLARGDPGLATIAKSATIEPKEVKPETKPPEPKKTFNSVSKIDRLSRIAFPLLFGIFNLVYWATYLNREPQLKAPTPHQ
T2 sequence (P47870 26-512): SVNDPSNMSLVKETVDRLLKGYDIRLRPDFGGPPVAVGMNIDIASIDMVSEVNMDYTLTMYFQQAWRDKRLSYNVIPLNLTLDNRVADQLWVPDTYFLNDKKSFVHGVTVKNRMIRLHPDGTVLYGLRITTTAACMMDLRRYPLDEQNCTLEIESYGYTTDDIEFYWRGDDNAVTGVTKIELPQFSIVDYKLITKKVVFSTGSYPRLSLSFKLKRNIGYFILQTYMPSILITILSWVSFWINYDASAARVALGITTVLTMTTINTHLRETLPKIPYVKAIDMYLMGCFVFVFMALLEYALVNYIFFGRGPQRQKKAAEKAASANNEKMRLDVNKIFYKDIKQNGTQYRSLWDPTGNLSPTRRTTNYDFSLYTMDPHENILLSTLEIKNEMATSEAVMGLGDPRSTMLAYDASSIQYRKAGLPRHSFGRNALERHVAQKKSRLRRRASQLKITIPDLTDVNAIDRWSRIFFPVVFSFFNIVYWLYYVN
T2 sequence (P18507 40-467 isoform P18507-1 R82Q/T120M/T181S): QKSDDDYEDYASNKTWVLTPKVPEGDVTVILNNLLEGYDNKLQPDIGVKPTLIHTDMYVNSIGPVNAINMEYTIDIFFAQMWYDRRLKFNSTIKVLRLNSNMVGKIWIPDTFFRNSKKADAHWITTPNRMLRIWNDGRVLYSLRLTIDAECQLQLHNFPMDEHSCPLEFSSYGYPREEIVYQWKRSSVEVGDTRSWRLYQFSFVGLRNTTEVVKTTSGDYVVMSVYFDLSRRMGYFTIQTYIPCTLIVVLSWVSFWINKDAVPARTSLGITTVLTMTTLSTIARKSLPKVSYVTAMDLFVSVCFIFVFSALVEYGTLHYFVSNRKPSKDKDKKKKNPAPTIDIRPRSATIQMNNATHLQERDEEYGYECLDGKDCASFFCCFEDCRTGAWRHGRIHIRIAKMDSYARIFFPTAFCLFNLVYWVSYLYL
Experimental: To test the effects of the GABRG2 mutations on GABAA receptor function, electrophysiological analysis of Xenopus laevis oocytes were conducted. cDNAs encoding the GABRA1, GABRB2 and GABRG2 subunits of the human GABAA receptor were subcloned into pcDNA3.1(+). The c245G→A and c1168C→T mutations were introduced separately into GABRG2 of the human GABAA receptor using the QuickChange site directed mutagenesis kit (Stratagene, La Jolla, Calif.). […] Successful mutagenesis was identified by DNA sequencing. Wild-type and mutant cDNAs were linearised and gel purified and cRNA was made using the T7 RNA polymerase Message Machine in vitro RNA synthesis kit (Ambion). Samples of cRNA were run on denaturing agarose gels to ensure they were the correct size and were not degraded. Xenopus laevis oocytes (stage V or VI) were microinjected with ˜25 ng of cRNA representing the GABAA subunits. A tenfold molar excess of wild-type and mutant GABRG2 was used to promote assembly of the ternary (GABRA1:GABRB2:GABRG2) rather than binary (GABRA1:GABRB2) complex. Oocytes were then stored in OR2 buffer (82.5 mM NaCl, 2 mM KCl, 1 mM MgCl2, 5 mM HEPES, pH 7.5, supplemented with 2% foetal bovine serum, 100 U/ml penicillin, 100 μg/ml streptomycin, Life Technologies) and incubated at 18° C. for three to five days to allow for adequate receptor expression. Current recordings from oocytes were made using a two-electrode voltage clamp (AxoClamp 2B, Axon Instruments), with recordings made at a holding potential of −80 mV. Electrodes were filled with 3 M KCl and were of 1–2 MΩ resistance. Oocytes were continuously perfused with ND96 solution (96 mM NaCl, 2 mM KCl, 1 mM MgCl2, […] and 5 mM HEPES, pH 7.5). gamma-Aminobutyric acid (GABA; Sigma-Aldrich, Australia) was applied by bath perfusion.

[3] = tested on: GABAA receptor from 50:50 mixture of GABRG2 and GABRG2(R43Q); assay: Diazepam potentiation in oocytes injected with 50:50 mixture of GABRG2 and GABRG2(R43Q) cRNA; type: cell-based, human; conditions: n=8
Experimental: as §1

[4] = tested on: GABRA1:GABRB2:GABRG2(Q351X) GABAA receptor; assay: GABA current response in Xenopus laevis oocytes, Q351X mutant; type: cell-based, human; conditions: 1:1:10 GABRA1:GABRB2:GABRG2(Q351X) cRNA injection ratio
Experimental: (§2) To test the effects of the GABRG2 mutations on GABAA receptor function, electrophysiological analysis of Xenopus laevis oocytes were conducted. cDNAs encoding the GABRA1, GABRB2 and GABRG2 subunits of the human GABAA receptor were subcloned into pcDNA3.1(+). The c245G→A and c1168C→T mutations were introduced separately into GABRG2 of the human GABAA receptor using the QuickChange site directed mutagenesis kit (Stratagene, La Jolla, Calif.). The oligonucleotide represented by SEQ ID NO:50 (5′ GGATATGACAATAAACTTCAGCCTGATATAGGAGTGAAGCC 3′) was used to incorporate the c245G→A mutation, while the oligonucleotide represented by SEQ ID NO:51 (5′ GCGAATTCATTAAATGGTTGCTGATCTTGGGCG 3′) was used to incorporate the c1168C→T mutation. Successful mutagenesis was identified by DNA sequencing. Wild-type and mutant cDNAs were linearised and gel purified and cRNA was made using the T7 RNA polymerase Message Machine in vitro RNA synthesis kit (Ambion). Samples of cRNA were run on denaturing agarose gels to ensure they were the correct size and were not degraded. Xenopus laevis oocytes (stage V or VI) were microinjected with ˜25 ng of cRNA representing the GABAA subunits. A tenfold molar excess of wild-type and mutant GABRG2 was used to promote assembly of the ternary (GABRA1:GABRB2:GABRG2) rather than binary (GABRA1:GABRB2) complex. […]

[5] = target: T3, GABRA1:GABRB2:GABRG2 wild-type GABAA receptor (Homo sapiens, UniProt P14867+P18507+P47870); assay: GABA current response in Xenopus laevis oocytes, wild-type GABRG2; type: cell-based; conditions: 1:1:10 ratio with wild-type GABRG2
T3 construct: expressed in transfected cells; host or cells: Xenopus laevis oocytes (cRNA injection)
T3 sequence (P18507 40-467 isoform P18507-1 limits assumed, one chain of several): as the sequence (P18507 40-467 isoform P18507-1 limits assumed, one chain of several) above
Experimental: as §2

[6] = target: T4, GABRA1:GABRB2 GABAA receptor (Homo sapiens, UniProt P14867+P47870); assay: GABA current response in Xenopus laevis oocytes, GABRA1:GABRB2:water; type: cell-based; conditions: 1:1:10 GABRA1:GABRB2:water injection ratio
T4 construct: expressed in transfected cells; host or cells: Xenopus laevis oocytes (cRNA injection)
T4 sequence (P14867 28-456): T2 sequence (P14867 28-456)
T4 sequence (P47870 26-512): T2 sequence (P47870 26-512)
Experimental: as §2

[7] = target: T5, GABAA receptor containing GABRG2(R43Q) (Homo sapiens, UniProt P14867+P18507+P47870, R82Q/T120M/T181S); assay: GABA electrophysiological response in Xenopus oocytes, GABRG2(R43Q); type: cell-based; conditions: oocytes expressing GABRG2 or GABRG2(R43Q)
T5 construct: expressed in transfected cells; host or cells: Xenopus laevis oocytes (cRNA injection)
T5 sequence (P14867 28-456): T2 sequence (P14867 28-456)
T5 sequence (P47870 26-512): T2 sequence (P47870 26-512)
T5 sequence (P18507 40-467 isoform P18507-1 R82Q/T120M/T181S): T2 sequence (P18507 40-467 isoform P18507-1 R82Q/T120M/T181S)
Experimental: as §2

[8] = target: T6, mutant [α1β2γ2 (R43Q)] GABAA receptor (Homo sapiens, UniProt P14867+P18507+P47870, R82Q/T120M/T181S); assay: Zn2+ sensitivity of GABA-activated currents in Xenopus laevis oocytes, R43Q mutant channels; type: cell-based
T6 construct: expressed in transfected cells; host or cells: Xenopus laevis oocytes (cRNA injection)
T6 sequence (P14867 28-456): T2 sequence (P14867 28-456)
T6 sequence (P47870 26-512): T2 sequence (P47870 26-512)
T6 sequence (P18507 40-467 isoform P18507-1 R82Q/T120M/T181S): T2 sequence (P18507 40-467 isoform P18507-1 R82Q/T120M/T181S)
Experimental: as §2

[9] = target: T7, wild-type (α1β2γ2) GABAA receptor (Homo sapiens, UniProt P14867+P18507+P47870); parameters: expressed in transfected cells; conditions: correct assembly of GABRA1, GABRB2 and GABRG2; Draguhn et al, 1990; cited from earlier work
T7 sequence (P18507 40-467 isoform P18507-1 limits assumed, one chain of several): as the sequence (P18507 40-467 isoform P18507-1 limits assumed, one chain of several) above

[10] = target: T8, GABRA1 and GABRB2 (α1β2) GABAA receptor (Homo sapiens, UniProt P14867+P47870); parameters: expressed in transfected cells; conditions: GABRA1 and GABRB2 alone; Draguhn et al, 1990; cited from earlier work
T8 sequence (P14867 28-456): T2 sequence (P14867 28-456)
T8 sequence (P47870 26-512): T2 sequence (P47870 26-512)

[11] = target: T7, wild-type (α1β2γ2) GABAA receptor; assay: Zn2+ sensitivity of GABA-activated currents in Xenopus laevis oocytes, wild-type channels; type: cell-based; parameters: expressed in transfected cells; host or cells: Xenopus laevis oocytes (cRNA injection); conditions: Zn2+ 10 μM, n=9
Experimental: as §2

[12] = target: T8, GABRA1 and GABRB2 (α1β2) GABAA receptor; assay: Zn2+ sensitivity of GABA-activated currents in Xenopus laevis oocytes, GABRA1 and GABRB2 alone; type: cell-based; parameters: expressed in transfected cells; host or cells: Xenopus laevis oocytes (cRNA injection)
Experimental: as §2

CN1C(=O)CN=C(c2ccccc2)c2cc(Cl)ccc21 [diazepam]
increase of GABA currents by diazepam (potentiation), mean±SEM ([1]; n=20, P<0.01): 303±33% | increase of GABA currents by diazepam (potentiation), mean±SEM ([1]; n=20, P<0.01, listed as Diazepam): 302±33% | small, insignificant decrease in GABA current with diazepam, mean±SEM [2]: 10±6% | small, insignificant decrease in GABA current with diazepam, mean±SEM ([2]; listed as Diazepam): 10%±6 | diazepam potentiation ([2]; receptors containing the GABRG2(R43Q) subunit): completely abolished | intermediate diazepam potentiation [3]: 129±30%

NCCCC(=O)O [GABA, gamma-Aminobutyric acid]
current response to GABA [4]: abolishes responses to GABA; also recorded: no current response | current response to GABA [5]: strong current responses | current response to GABA [6]: gave current responses | electrophysiological responses to GABA versus wild-type GABRG2 [7]: indistinguishable

[Zn+2] [Zn^2+]
effect of Zn2+ compared with wild-type GABRG2 ([8]; GABRG2(R43Q) versus GABRG2 expressing oocytes): same effect | partial inhibition of the GABA current by Zn2+ ([8]; Zn2+ 10 μM, R43Q mutant, n=9): 40±5% | sensitivity of currents to Zn2+ [9]: significantly less sensitive | sensitivity of currents to Zn2+ [10]: extremely sensitive | partial inhibition of the GABA current by Zn2+ [11]: 37±2% | GABA-activated current abolished by Zn2+ ([12]; Zn2+ 10 μM, GABA 100 μM, α1β2 alone, n=8): 89±7% | effect of Zn2+ on GABA-activated currents ([12]; oocytes expressing only GABRA1 and GABRB2): totally abolished
